Source: patent publication EP2931723B1, “NEW BICYCLIC COMPOUNDS AND THEIR USE AS ANTIBACTERIAL AGENTS AND -LACTAMASE INHIBITORS” (Fedora Pharmaceuticals Inc., priority 2012, dated 2014)

What was measured:
Assay in all cases: MIC, antibacterial and synergistic activity
Format in all cases: cell-based
[1] = system: E. coli ATCC 25922; settings: E. coli ATCC 25922 (Wt)
[2] = system: A. baumanii JMI 2659; settings: A. baumanii JMI 2659 (Ges-14 (Cpase))
[3] = system: E.coli JMI 4103; settings: E.coli JMI 4103 (KPC-2, Tem-1, CMY-Type)
[4] = system: E. coli JMI 10768; settings: E. coli JMI 10768 (CTX-M15 (Weak ESBL))
Experimental: (§1) In the Tables 10 - 12, compounds herein disclosed were tested in combination with various antibiotics against metallo β-lactamase producing bacteria. Table 3: Synergy of the inhibitor Ex. 1 (4 µg/mL) in combination with antibiotics

[5] = system: K. pneumo JMI 2673; settings: K. pneumo JMI 2673 (CTX-M14 (ESBL))
Experimental: as §1

[6] = system: K. pneumo JMI 2699; settings: K. pneumo JMI 2699 (VIM-1, CTX-M3)
Experimental: as §1

[7] = system: P. aerug JMI 2686; settings: P. aerug JMI 2686 (KPC-2 (Cpase))
Experimental: as §1

[8] = system: K. pneumo JMI 4106; settings: K. pneumo JMI 4106 (KPC-3, TEM-1, SHV-12, SHV-141)
[9] = system: E. coli JMI 2692; settings: E. coli JMI 2692 (NDM-1, TEM-1, CTX-M-15)
Experimental: (§2) In the Tables 10 - 12, compounds herein disclosed were tested in combination with various antibiotics against metallo β-lactamase producing bacteria.

[10] = system: K. pneumo JMI 2693; settings: K. pneumo JMI 2693 (NDM-1 (Cpase))
Experimental: as §2

[11] = system: K. pneumo JMI 2697; settings: K. pneumo JMI 2697 (IMP-4 (Cpase))
Experimental: as §2

[12] = system: K. pneumo JMI 2681; settings: K. pneumo JMI 2681 (Oxa-48 (Cpase))
[13] = system: P. aerug JMI 149; settings: P. aerug JMI 149 (Bla+++D+)
[14] = system: E. cloacae JMI 36; settings: E. cloacae JMI 36 (P99)
[15] = system: K.pneumo JMI 4109; settings: K.pneumo JMI 4109 (SHV-1, SHV-12); substance alone
[16] = system: K. pneumo JMI 2674; settings: K. pneumo JMI 2674 (CTX-M15 (ESBL)); substance alone
[17] = system: K. pneumo JMI 4088; settings: K. pneumo JMI 4088 (KPC-3 (Cpase)); substance alone
[18] = system: P. aerug JMI 2686; settings: P. aerug JMI 2686 (KPC-2 (Cpase)); substance alone
[19] = system: E. coli JMI 10767; settings: E. coli JMI 10767 (Wt)
[20] = system: E. coli JMI 10768; settings: E. coli JMI 10768 (CTX-M15 (Weak ESBL)); Meropenem + inhibitor at 4 µg/mL
[21] = system: E. coli JMI 10770; settings: Escherichia coli, JMI10770; E. coli JMI 10770 (CTX-M15 (Hyper ESBL)); substance alone
[22] = system: E. coli JMI 11103
[23] = Aztreonam + inhibitor at 4 µg/mL
[24] = Ceftazidime + inhibitor at 4 µg/mL
[25] = Meropenem + inhibitor at 4 µg/mL

O=C(NNC(=O)[C@H]1CC[C@H]2CN1C(=O)N2OS(=O)(=O)O)C1CNC1 (stereo in doubt) [Ex. 9, (2R,5S)-N'-(azetidin-3-ylcarbonyl)-7-oxo-6-(sulfooxy)-1,6-diazabicyclo[3.2.1]octane-2-carbohydrazide]
MIC Aztreonam + inhibitor [1, 23]: ≤0.06 µg/mL
MIC Ceftazidime + inhibitor [1, 24]: ≤0.25 µg/mL
MIC Meropenem + inhibitor [1, 25]: ≤0.03 µg/mL
MIC ([1]; Escherichia coli, ATCC25922, substance alone): > 16 µg/mL
MIC Aztreonam + inhibitor [2, 23]: >4 µg/mL
MIC Ceftazidime + inhibitor [2, 24]: 16 µg/mL
MIC Meropenem + inhibitor [2, 25]: 2 µg/mL
MIC ([2]; Acinetobacter baumannii, JMI2659, substance alone, read-out: MIC): > 16 µg/mL
MIC Aztreonam + inhibitor [3, 23]: ≤0.06 µg/mL
MIC Ceftazidime + inhibitor [3, 24]: 0.5 µg/mL
MIC Meropenem + inhibitor [3, 25]: 0.06 µg/mL
MIC ([3]; Escherichia coli, JMI4103, substance alone): 16 µg/mL
MIC Aztreonam + inhibitor [4, 23]: ≤0.06 µg/mL
MIC Ceftazidime + inhibitor [4, 24]: ≤0.25 µg/mL
MIC ([4]; Escherichia coli, JMI10768, substance alone): > 16 µg/mL
MIC Aztreonam + inhibitor [5, 23]: ≤0.06 µg/mL
MIC Ceftazidime + inhibitor [5, 24]: ≤0.25 µg/mL
MIC Meropenem + inhibitor [5, 25]: ≤0.03 µg/mL
MIC Aztreonam + inhibitor [6, 23]: 0.06 µg/mL
MIC Ceftazidime + inhibitor [6, 24]: ≤0.25 µg/mL
MIC Meropenem + inhibitor [6, 25]: 0.5 µg/mL
MIC ([6]; substance alone, read-out: MIC): > 16 µg/mL
MIC Aztreonam + inhibitor [7, 23]: >4 µg/mL
MIC Ceftazidime + inhibitor [7, 24]: >16 µg/mL
MIC Meropenem + inhibitor [7, 25]: >2 µg/mL
MIC Aztreonam + inhibitor [8, 23]: 0.5 µg/mL
MIC Ceftazidime + inhibitor [8, 24]: ≤0.25 µg/mL
MIC Meropenem + inhibitor [8, 25]: 0.125 µg/mL
MIC ([8]; substance alone, read-out: MIC): 8 µg/mL
MIC Aztreonam + inhibitor [9, 23]: 1 µg/mL
MIC Ceftazidime + inhibitor [9, 24]: >16 µg/mL
MIC Meropenem + inhibitor [9, 25]: 0.125 µg/mL
MIC ([9]; Escherichia coli, JMI2692, substance alone, read-out: MIC): 8 µg/mL
MIC Aztreonam + inhibitor [10, 23]: 0.25 µg/mL
MIC Ceftazidime + inhibitor [10, 24]: ≤0.25 µg/mL
MIC Meropenem + inhibitor [10, 25]: 0.125 µg/mL
MIC ([10]; substance alone): > 16 µg/mL
MIC Aztreonam + inhibitor [11, 23]: ≤0.06 µg/mL
MIC Ceftazidime + inhibitor [11, 24]: 8 µg/mL
MIC Meropenem + inhibitor [11, 25]: 2 µg/mL
MIC ([11]; substance alone): 16 µg/mL
MIC Aztreonam + inhibitor [12, 23]: 0.25 µg/mL
MIC Ceftazidime + inhibitor [12, 24]: ≤0.25 µg/mL
MIC Meropenem + inhibitor [12, 25]: >2 µg/mL
MIC ([12]; substance alone, read-out: MIC): > 16 µg/mL
MIC Aztreonam + inhibitor [13, 23]: >4 µg/mL
MIC Ceftazidime + inhibitor [13, 24]: 16 µg/mL
MIC Meropenem + inhibitor [13, 25]: 0.5 µg/mL
MIC ([13]; substance alone, read-out: MIC): 16 µg/mL
MIC Aztreonam + inhibitor [14, 23]: 0.25 µg/mL
MIC Ceftazidime + inhibitor [14, 24]: ≤0.25 µg/mL
MIC Meropenem + inhibitor [14, 25]: 0.06 µg/mL
MIC ([14]; Enterobacter cloacae, JMI36, substance alone, read-out: MIC): > 16 µg/mL
MIC [15]: 4 µg/mL
MIC [16]: > 16 µg/mL
MIC [17]: 16 µg/mL
MIC [18]: 16 µg/mL
MIC Meropenem + inhibitor [19, 25]: ≤0.03 µg/mL
MIC ([19]; Escherichia coli, JMI10767, substance alone): > 16 µg/mL
MIC Meropenem + inhibitor [20]: ≤0.03 µg/mL
MIC [21]: > 16 µg/mL
MIC Aztreonam + inhibitor ([22]; E. coli JMI 11103 (CTX-M15 (Intermediate ESBL)), Aztreonam + inhibitor at 4 µg/mL): ≤0.06 µg/mL
MIC Ceftazidime + inhibitor ([22]; E. coli JMI 11103 (CTX-M15 (Intermediate ESBL)), Ceftazidime + inhibitor at 4 µg/mL): ≤0.25 µg/mL
MIC Meropenem + inhibitor ([22]; E. coli JMI 11103 (CTX-M15 (Intermediate ESBL)), Meropenem + inhibitor at 4 µg/mL): ≤0.03 µg/mL
MIC ([22]; Escherichia coli, JMI11103, E. coli JMI 11103 (CTX-M15 (Intermediate ESBL)), substance alone): > 16 µg/mL
